{"source": "BindingDB's records for PubMed 1652050", "about": "(Seattle Veterans Affairs Medical Center, 1991)", "target": "5-hydroxytryptamine receptor 1D (Homo sapiens, UniProt P28221)", "sequence (P28221 whole entry)": "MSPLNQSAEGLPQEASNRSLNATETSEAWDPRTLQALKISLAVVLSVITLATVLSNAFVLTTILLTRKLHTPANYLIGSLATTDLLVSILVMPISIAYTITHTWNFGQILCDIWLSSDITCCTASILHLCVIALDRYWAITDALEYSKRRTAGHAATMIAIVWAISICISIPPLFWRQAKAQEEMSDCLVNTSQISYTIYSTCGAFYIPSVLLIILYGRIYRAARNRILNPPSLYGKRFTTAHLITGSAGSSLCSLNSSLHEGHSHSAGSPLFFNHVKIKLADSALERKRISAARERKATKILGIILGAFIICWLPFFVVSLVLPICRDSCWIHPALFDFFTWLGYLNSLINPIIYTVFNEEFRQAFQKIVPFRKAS", "note": "Where “and” joins values, the source holds several entries; their conditions need not be identical. Identical values can stand only once.", "data": [{"smiles": "CN1C2CCC1CC(OC(=O)c1c[nH]c3ccccc13)C2", "note": "(centres undefined)", "values": [{"measurement": "Ki", "value": "> 10", "unit": "µM"}]}, {"smiles": "CN1CC(C(=O)N[C@]2(C)O[C@@]3(O)C4CCCN4C(=O)[C@H](Cc4ccccc4)N3C2=O)CC2c3cccc4[nH]cc(c34)CC21", "note": "(stereo partly drawn) [7-Methyl-4,6,6a,7,8,9,10,10a-octahydro-indolo[4,3-fg]quinoline-9-carboxylic acid ((2R,5S,10bS)-5-benzyl-10b-hydroxy-2-methyl-3,6-dioxo-octahydro-oxazolo[3,2-a]pyrrolo[2,1-c]pyrazin-2-yl)-amide]", "values": [{"measurement": "Ki", "value": 0.00013, "unit": "µM"}]}, {"smiles": "O=C(CCCN1CCC2(CC1)C(=O)NCN2c1ccccc1)c1ccc(F)cc1", "note": "[8-[4-(4-fluorophenyl)-4-oxidanylidene-butyl]-1-phenyl-1,3,8-triazaspiro[4.5]decan-4-one]", "values": [{"measurement": "Ki", "value": 3.1, "unit": "µM"}]}, {"smiles": "CN1C[C@@H](NS(=O)(=O)N(C)C)C[C@@H]2c3cccc4c3c(cn4C)C[C@H]21", "note": "[MESULERGINE]", "values": [{"measurement": "Ki", "value": 1.7, "unit": "µM"}]}, {"smiles": "CN1C[C@H](CNC(=O)OCc2ccccc2)C[C@@H]2c3cccc4c3c(cn4C)C[C@H]21", "note": "[METERGOLINE]", "values": [{"measurement": "Ki", "value": 0.00061, "unit": "µM"}]}, {"smiles": "CC(C)(C)NCC(O)COc1cccc2[nH]c(C#N)cc12", "note": "(centres undefined) [NSC_155346]", "values": [{"measurement": "Ki", "value": 0.085, "unit": "µM"}]}, {"smiles": "Clc1cccc(N2CCNCC2)c1", "note": "[mCPP]", "values": [{"measurement": "Ki", "value": 0.21, "unit": "µM"}]}, {"smiles": "CSc1ccc2c(c1)C(N1CCN(C)CC1)Cc1ccccc1S2", "note": "(centres undefined) [methanesulfonic acid;1-methyl-4-(3-methylsulfanyl-5,6-dihydrobenzo[b][1]benzothiepin-5-yl)piperazine]", "values": [{"measurement": "Ki", "value": 0.0058, "unit": "µM"}]}, {"smiles": "COC(=O)[C@@H]1[C@H]2C[C@H]3c4[nH]c5ccccc5c4CCN3C[C@@H]2CC[C@@H]1O", "note": "[yohimbic acid methyl ester]", "values": [{"measurement": "Ki", "value": "0.059 µM and 0.051 µM"}]}]}
